From paper PMC7866587, “Cell cycle arrest and apoptosis induction by Juniperus communis extract in esophageal squamous cell carcinoma through activation of p53‐induced apoptosis pathway” (Food Science & Nutrition, 2020) come the findings set out here.

In brackets after ≈: the same amount, converted by molar mass.

The subject of one experiment is CE48T/VGH cells. As to the kind of experiment: MTT cell viability assay. Type of experiment: cell-based, human. To be noted: mean ± SD; for IC50: Homo sapiens. The protocol:
(§1) CE81T/VGH (human esophageal squamous cell carcinoma), CE48T/VGH (human esophageal epidermoid carcinoma (VGH), SVEC (mouse vascular endothelial cell) and MDCK (cannis kidney epithelial cells) were purchased from the Food Industry Research and Development Institute. CE81T/VGH, CE48T/VGH, SVEC, and MDCK were cultured in Dulbecco's Modified Eagle Medium supplemented with 10% fetal bovine serum (Gibco BRL), 10 mM HEPES (Gibco), 1 mM pyruvate (Gibco), P/S (100 μg/ml penicillin, and 100 μg/ml streptomycin; Gibco), and non‐essential amino acids (Gibco, CE81T/VGH and CE48T/VGH only). Cells were grown in 10 cm^2 culture dishes in a humidified atmosphere with 5% CO2 at 37°C. The TP53 in the CE81T/VGH cells was mutated, which was detected using automated extraction of nucleic acids (AccuBioMed Co., Ltd.) and Femtopath Human Primer Sets (HongJing Biotech). JCo was purchased from the PHOENIX company and extracted using steam distillation. The clinical drug 5‐Fluorouracil (5‐FU; Sigma) was prepared in dimethyl sulfoxide (DMSO) in each in vitro experiment. Cells were treated with equivalent amounts of DMSO in the control and treatment groups, and the final concentration of DMSO in each experiment was 0.01%–0.5%.
(§2) The viability of CE81T/VGH, CE48T/VGH, MDCK, and SVEC cells was determined using a modified 3‐(4,5‐dimethylthiazol‐2‐yl)‐2,5‐diphenyltetrazolium bromide (MTT) assay. Cells were cultured in a 96‐well plate at a density of 5 × 10^3 cells/well for 24 hr and treated with different concentrations of JCo extract or 5‐FU for 24, 48, and 72 hr. MTT was dissolved in the base medium (400 μg/mL, Sigma), and 100 μl of solution was added into each well and incubated for 6–8 hr. The MTT formazan crystals were dissolved in 50 μL DMSO and the optical density (O.D.) was detected using a microplate reader (Molecular Devices, Spec384) at 550 nm. Cell viability was calculated as the O.D. percentage relative to the controls. The half‐maximal inhibitory concentration (IC50) value of JCo extract was measured from the cell viability assay.
(Formazan colour is commonly taken as a measure of viable cells.)

The test system of another experiment is CE81T/VGH cells. Nature of the experiment: MTT cell viability assay. It is filed as cell-based, human. The note with it: for IC50: Homo sapiens, CE81T/VGH, mean ± SD. The protocol: as §1, §2
In a further experiment the test system is SVEC cells. As to the kind of experiment: MTT cell viability assay (normal cells). To be noted: Mus musculus, mean ± SD. Type of experiment: cell-based. The protocol: as §1, §2
Another experiment has as its system MDCK cells. Nature of the experiment: MTT cell viability assay (normal cells). Type of experiment: cell-based, cannis. To be noted: Canis lupus familiaris, mean ± SD. On the procedure: as §1, §2

What is called IC50 is the midpoint of a concentration-inhibition curve. Read a high IC50 as weaker potency in that assay. Take `O=c1[nH]cc(F)c(=O)[nH]1` [5‐FU, 5‐fluorouracil]: the “IC50 (cell viability)” value in the experiment on CE48T/VGH cells (48 hr) turned out to be 5.64 ± 0.34 µg/mL (≈ 43.4 µM). The IC50 with CE48T/VGH cells (24 hr) is 16 ± 0.03 µg/mL (≈ 123 µM); in the experiment on CE48T/VGH cells (72 hr), 3.73 ± 0.06 µg/mL (≈ 28.7 µM); in the experiment on CE81T/VGH cells (24 hr), over 20 µg/mL; in the experiment on CE81T/VGH cells (48 hr), 15.3 ± 6.74 µg/mL (≈ 118 µM); with CE81T/VGH cells (72 hr), 1.62 ± 0.04 µg/mL (≈ 12.5 µM); in the experiment with SVEC cells (24 hr) it was 3.53 ± 0.29 µg/mL (≈ 27.1 µM). Further, the IC50 in the experiment on SVEC cells (48 hr) is under 0.63 µg/mL; in the experiment with SVEC cells (72 hr), under 0.63 µg/mL; with MDCK cells (24 hr), over 20 µg/mL; in the experiment with MDCK cells (48 hr), under 0.63 µg/mL; in the experiment on MDCK cells (72 hr), under 0.63 µg/mL. Besides, in the experiment on CE81T/VGH cells (after 48 and 72 hr), the “selection for ESCC versus normal cells (from IC50 values)” value was “lower”. Besides, in the experiment on CE81T/VGH cells (after 24 hr), the “selection between ESCC and normal cells (from IC50 values)” value is given as “no obvious selection”.
